Results from patent US20100075361A1, “METHODS OF GENERATING FLORESCENCE RESONANCE ENERGY TRANSFER (FRET) BETWEEN SEMICONDUCTOR QUANTUM DOTS AND FLUORESCENT DYES/PROTEINS VIA MULTI-PHOTON EXCITATION, ACHIEVING ZERO BACKGROUND OR DIRECT EXCITATION CONTRIBUTIONS TO THE FRET SIGNATURE” (Government of the United States of America the Secretary of …, priority 2008, published 2010).

Assays:
[1] = Two-photon action cross-section measurement, fluorescein as standard; assay type: physicochemical; details: Water, 800 nm
Excerpt: Steady-state composite spectra collected from samples under two-photon excitation were deconvoluted to yield individual photoluminence (PL) contributions using the known spectral profiles of isolated QDs and Cy3 dye emissions (see FIG. 4A, FIG. 4B, FIG. 4C and FIG. 4D).
Table 1 contains data describing two-photon action cross-sections for QDs populations in water and toluene, characterized using fluorescein as a standard in aqueous buffer (φσ2p=36 GM at 800 nm and pH 13), Cy3, fluorescein and wild-type green fluorescent protein (GFP) (from reference 28). Although multi-photon absorption profiles are non-linear optical phenomena, the longer wavelength emitting QD populations show higher two-photon action cross-sections, consistent with the one-photon absorption behavior.

HEK 293T/17 cells = test: Two-photon / one-photon fluorescence microscopy of cells incubated with QD-peptide conjugates; assay type: cell-based, human; details: two-photon excitation, 840 nm
Excerpt: In the first exemplary embodiment, in regard to quantum dot peptide conjugates, cell penetrating peptide (CPP) was synthesized by Boc-solid phase peptide synthesis with the sequence (His)8-Trp-Gly-Leu-Ala-Aib-Ser-Gly-(Arg)8-amide, where Aib is the artificial residue alpha-amino isobutyric acid. The Cy3-labeled peptide was synthesized with the sequence, Ac-(His)6-Gly-Leu-Aib-[…]NH2, where Ac is an acetyl group at the N-terminus. This peptide was labeled with a maleimide-functionalized Cy3 at the cysteine residue. The polyhistidine sequences at the N-termini of the peptides allowed and/or caused their self-assembly on the QD surface. […]
Exemplary embodiments show a unique advantage of two-photon excitation to probe energy transfer between QDs and conjugated dye acceptors, while investigating the stability of self-assembled QD-peptide conjugates within cells using fluorescence microscopy. […]
Further, in the first exemplary embodiment, in regard to cell imaging, two-photon cell imaging is performed with a BIO-RAD MRC-1024 MP confocal system using ˜10 mW of 840 nm pulsed excitation (˜80 fs, 80 MHz) at the focal plane of a 60×, 0.9 NA water immersion objective microscope. […] DAPI fluorescence cross-talk was subtracted from the QD channel. […]

| Two-photon action cross-section [1] | Substance | Cy3 fluorescence / FRET from QDs to Cy3 in cells (HEK 293T/17 cells) |
| --- | --- | --- |
| <1 GM | Cy3 | – |
| – | Tf-Cy3: Cy3-labeled transferrin, endosomal marker, mixed with unlabeled CPP-QD, not bound to QDs | does not show any evidence of Cy3 fluorescence |
